{"source": "patent US20200010756A1", "about": "“SURFACTANT FOR ENHANCED OIL RECOVERY” (Total S.A., priority 2017, published 2020)"}
{"compound": "CCCCCCCCCCCC(=O)NCCCN(C)C", "note": "[D, dodecylamidopropyl dimethylamine]", "values": [{"measurement": "stability at high temperature", "result": "not stable"}]}
